According to ChEMBL document CHEMBL1123523, “Oxidation of 5-hydroxytryptamine and 5,7-dihydroxytryptamine. A new oxidation pathway and formation of a novel neurotoxin” (J Med Chem, 1986):

Species on record: Mus musculus
Assay: Compound was tested for lowering the norepinephrine levels in mouse brain expressed as percent of control values
Type: functional
Details: not given
`NCCc1c[nH]c2c1C(=O)C(=O)C=C2O` was tested, and the Activity was 87%.

The compounds below were run on Mus musculus (assay: Compound was tested for neurotoxic property after intracranial administration in mice). Details: in vivo, other.
Type: ADME, organism-based
`NCCc1c[nH]c2c1C(=O)C(=O)C=C2O` gave an LD50 of 20 µg.
Compound `NCCc1cc(O)c(O)cc1N` has an LD50 of 50 µg.
`CC(N)Cc1cc(O)c(O)cc1N` (stereo unspecified) showed an LD50 of 45 µg.
With `NCCc1c[nH]c2c(O)cc(O)cc12` the LD50 was 55 µg.
`NCCc1cc(O)c(O)cc1O` [OXIDOPAMINE] was tested, and the LD50 was 80 µg.
